# Results: ChEMBL document CHEMBL1806496, “Nothospondin, a new AP-1 inhibitory quassinoid from the Cameroonian plant Nothospondias staudtii” (Bioorg Med Chem Lett, 2011)
# Assays:
# Transcription factor Jun = Transcription factor Jun (Homo sapiens, UniProt P05412); assay: Inhibition of TPA-induced AP-1 activity expressed in human HEK293T cells treated 1 hr before TPA challenge measured after 18 hrs by FRET based beta-lactamase reporter assay; type: cell-based, HEK-293T; conditions: for inhibition: HEK-293T
# HEK-293T [1] = assay: Cytotoxicity against human HEK293T cells expressing AP-1 at 80 uM after 18 hrs by XTT assay; type: cell-based
# HEK-293T [2] = assay: Cytotoxicity against human HEK293T cells expressing AP-1 after 18 hrs by XTT assay; type: cell-based
# Transcription factor Jun, sequence (P05412 whole entry): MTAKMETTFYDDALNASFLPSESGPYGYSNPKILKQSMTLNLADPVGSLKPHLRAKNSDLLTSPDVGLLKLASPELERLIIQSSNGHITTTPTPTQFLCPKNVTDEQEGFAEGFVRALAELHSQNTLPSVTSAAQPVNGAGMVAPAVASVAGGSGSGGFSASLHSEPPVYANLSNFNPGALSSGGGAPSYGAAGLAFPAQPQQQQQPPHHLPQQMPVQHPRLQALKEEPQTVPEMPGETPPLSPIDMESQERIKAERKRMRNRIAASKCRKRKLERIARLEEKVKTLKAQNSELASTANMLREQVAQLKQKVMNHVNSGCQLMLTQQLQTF
smiles,measurement,setting,value
CC[C@](C)(O)C(=O)O[C@H]1C(=O)O[C@@H]2C[C@H]3C(C)=CC(=O)[C@@H](O)[C@]3(C)[C@H]3[C@@]4(O)OC[C@]32[C@@H]1[C@@H](C)[C@H]4O [GLAUCARUBINONE],EC50,Transcription factor Jun,0.13 µM
same,inhibition,Transcription factor Jun,Dose-dependent effect
same,Activity,HEK-293T [1],Non-toxic
COC1=C(C)[C@@H]2CC(=O)O[C@@H]3C[C@H]4[C@H](C)[C@@H](O)[C@H](O)C(=O)[C@]4(C)[C@@H](C1=O)[C@@]32C [NOTHOSPONDIN],EC50,Transcription factor Jun,1.49 µM
same,inhibition,Transcription factor Jun,Dose-dependent effect
same,IC50,HEK-293T [2],10 µM
